Assay results reported in patent publication US20200306295A1, “METHOD AND DEVICE FOR ANNIHILATION OF Staphylococcus aureus” (priority 2017, published 2020).

System: 200 kinds of cytokines
Assay: Fold change of 200 cytokines in homogenized wound tissue
Format: in vivo, Balb/c mice
Description: To quantify the physiological condition of the wound tissues, we measured the concentrations of 200 kinds of cytokines (Table. 1) from the supernatant of homogenized tissue solution. Cytokines are small secreted proteins released by cells and have specific effect on the interactions and communications between cells (25).
To initiate the formation of a skin wound, five groups (n=5) of eight-week old female Balb/c mice (obtained from Harlan Laboratories, Indianapolis, Ind., USA) were disinfected with ethanol (70%) and shaved on the middle of the back (approximately a one-inch by one-inch square region around the injection site) one day prior to infection as described from a reported procedure (3). To prepare the bacterial inoculum, an aliquot of overnight culture of MRSA USA300 was transferred to fresh Tryptic soy broth and shaken at 37° C. until an OD600 value of ˜1.0 was achieved. The cells were centrifuged, washed once with PBS, re-centrifuged, and then re-suspended in PBS. Mice subsequently received an intradermal injection (40 μL) containing 2.40×10^9 CFU/mL MRSA USA300.
One group of mice was left untreated (negative control). Each group of mice receiving a particular treatment regimen was housed separately in a ventilated cage with appropriate bedding, food, and water. […] Mice were treated twice daily (once every 12 hours) for three days, before they were humanely euthanized via CO2 asphyxiation 12 hours after the last dose was administered. The region around the skin wound was lightly swabbed with ethanol (70%) and excised. The tissue was subsequently homogenized in PBS. The homogenized tissue was then serially diluted in PBS before plating onto mannitol salt agar plates. Plates were incubated for at least 19 hours at 37° C. before viable MRSA CFU/mL were counted for each group. Outlier was removed based upon the Dixon Q Test.

Compound: OO [H2O2, hydrogen peroxide]
- share of 200 cytokines with negative fold change vs untreated (blue light and H2O2-treated group): Over 85%
- fold change of MBL-2 (mean) (cytokine MBL-2, group mean, wound tissue of MRSA-infected mice): −0.0587
- fold change of Meteorin (mean) (cytokine Meteorin, group mean, wound tissue of MRSA-infected mice): 0.4850
- fold change of NOV (mean) (cytokine NOV, group mean, wound tissue of MRSA-infected mice): −0.1756
- fold change of Nope (mean) (cytokine Nope, group mean, wound tissue of MRSA-infected mice): −0.2914
- fold change of OX40 Ligand (mean) (cytokine OX40 Ligand, group mean, wound tissue of MRSA-infected mice): 0.2366
- fold change of Osteoactivin (mean) (cytokine Osteoactivin, group mean, wound tissue of MRSA-infected mice): 0.4709
- fold change of P-Cadherin (mean) (cytokine P-Cadherin, group mean, wound tissue of MRSA-infected mice): −0.0660
- fold change of Periostin (mean) (cytokine Periostin, group mean, wound tissue of MRSA-infected mice): −0.5519
- fold change of PlGF-2 (mean) (cytokine PlGF-2, group mean, wound tissue of MRSA-infected mice): −0.0738
- fold change of Progranulin (mean) (cytokine Progranulin, group mean, wound tissue of MRSA-infected mice): −0.6229
- fold change of Prostasin (mean) (cytokine Prostasin, group mean, wound tissue of MRSA-infected mice): 1.1226
- fold change of Renin 1 (mean) (cytokine Renin 1, group mean, wound tissue of MRSA-infected mice): −0.3457
- fold change of TIM-1 (mean) (cytokine TIM-1, group mean, wound tissue of MRSA-infected mice): −0.1106
- fold change of Testican 3 (mean) (cytokine Testican 3, group mean, wound tissue of MRSA-infected mice): −0.1883
- fold change of Tryptase ε (mean) (cytokine Tryptase ε, group mean, wound tissue of MRSA-infected mice): 0.3620
- fold change of 4-1BB (mean, wound tissue): −0.2733
- fold change of 6Ckine (mean, wound tissue): −0.3474
- fold change of ACE (mean, wound tissue): −0.8627
- fold change of ADAMTS1 (mean, wound tissue): 0.1068
- fold change of ALK-1 (mean, wound tissue): −0.1821
- fold change of ANG-3 (mean, wound tissue): −0.1019
- fold change of ANGPTL3 (mean, wound tissue): −0.1222
- fold change of AR (mean, wound tissue): −0.1343
- fold change of Activin A (mean, wound tissue): 0.0097
- fold change of Adiponen (mean, wound tissue): −0.0278
- fold change of Artemin (mean, wound tissue): 0.0433
- fold change of Axl (mean, wound tissue): −0.1455
- fold change of B7-1 (mean, wound tissue): 0.2808
- fold change of BAFF R (mean, wound tissue): 0.0988
- fold change of BLC (mean, wound tissue): −0.1960
- fold change of BTC (mean, wound tissue): 0.9018
- fold change of C5a (mean, wound tissue): 0.1618
- fold change of CCL6 (mean, wound tissue): −0.3559
- fold change of CCL28 (mean, wound tissue): −0.6841
- fold change of CD6 (mean, wound tissue): −0.2795
- fold change of CD27 (mean, wound tissue): 0.1670
- fold change of CD27L (mean, wound tissue): 0.1373
- fold change of CD30 (mean, wound tissue): −0.0510
- fold change of CD30L (mean, wound tissue): −0.0733
- fold change of CD36 (mean, wound tissue): −0.4456
- fold change of CD40 (mean, wound tissue): −0.1007
- fold change of CD40L (mean, wound tissue): −0.2549
- fold change of CD48 (mean, wound tissue): −0.3656
- fold change of CRP (mean, wound tissue): −0.2262
- fold change of CT-1 (mean, wound tissue): −0.3499
- fold change of CTLA4 (mean, wound tissue): −0.1747
- fold change of CXCL16 (mean, wound tissue): −0.2162
- fold change of Chemerin (mean, wound tissue): −0.2510
- fold change of Chordin (mean, wound tissue): −0.0093
- fold change of Clusterin (mean, wound tissue): 0.1123
- fold change of Cystatin C (mean, wound tissue): 0.0313
- fold change of DLL4 (mean, wound tissue): −0.0364
- fold change of Decorin (mean, wound tissue): −0.0051
- fold change of Dkk-1 (mean, wound tissue): −0.4175
- fold change of Dtk (mean, wound tissue): −0.3288
- fold change of E-Cadherin (mean, wound tissue): −0.1379
- fold change of E-selectin (mean, wound tissue): −0.1083
- fold change of EDAR (mean, wound tissue): 0.0841
- fold change of EGF (mean, wound tissue): −0.2293
- fold change of Endocan (mean, wound tissue): −0.0335
- fold change of Endoglin (mean, wound tissue): −0.6886
- fold change of Eotaxin (mean, wound tissue): 0.8584
- fold change of Eotaxin-2 (mean, wound tissue): −0.5961
- fold change of Epigen (mean, wound tissue): −0.1588
- fold change of Epiregulin (mean, wound tissue): −0.2878
- fold change of Fas (mean, wound tissue): −0.3001
- fold change of Fas L (mean, wound tissue): −0.2203
- fold change of Fcg RIIB (mean, wound tissue): 0.2388
- fold change of Fetuin A (mean, wound tissue): −0.5133
- fold change of Flt-3L (mean, wound tissue): −0.2615
- fold change of Fractalkine (mean, wound tissue): 0.4416
- fold change of G-CSF (mean, wound tissue): −0.4083
- fold change of GITR (mean, wound tissue): −0.1455
- fold change of GITR L (mean, wound tissue): −0.0425
- fold change of GM-CSF (mean, wound tissue): −0.1960
- fold change of Galectin-1 (mean, wound tissue): −0.1195
- fold change of Galectin-3 (mean, wound tissue): 0.0550
- fold change of Galectin-7 (mean, wound tissue): −0.3150
- fold change of Gas 1 (mean, wound tissue): −0.7018
- fold change of Gas 6 (mean, wound tissue): −0.3085
- fold change of Granzyme B (mean, wound tissue): 0.2145
- fold change of Gremlin (mean, wound tissue): −0.8057
- fold change of H60 (mean, wound tissue): −0.0250
- fold change of HAI-1 (mean, wound tissue): −0.0794
- fold change of HGF (mean, wound tissue): 0.2749
- fold change of HGF R (mean, wound tissue): 0.0240
- fold change of I-TAC (mean, wound tissue): −0.1457
- fold change of ICAM-1 (mean, wound tissue): −0.0362
- fold change of IFNg (mean, wound tissue): −0.2366
- fold change of IFNg R1 (mean, wound tissue): −0.2832
- fold change of IGF-1 (mean, wound tissue): 0.2487
- fold change of IGFBP-2 (mean, wound tissue): 0.0153
- fold change of IGFBP-3 (mean, wound tissue): −0.2116
- fold change of IGFBP-5 (mean, wound tissue): 0.0442
- fold change of IGFBP-6 (mean, wound tissue): −0.2308
- fold change of IL-1 R4 (mean, wound tissue): 0.0090
- fold change of IL-1a (mean, wound tissue): 0.0141
- fold change of IL-1b (mean, wound tissue): 0.2075
